The values below come from PubChem BioAssay (NCI).

Among the test systems are CAKI-1 renal; CCRF-CEM leukemia; KM12 colon; M14 melanoma; OVCAR-4 ovarian; SK-MEL-2 melanoma; SNB-19 CNS; TK-10 renal; HOP-62 NSCLC.
Holding throughout (test): NCI tumour cell line growth inhibition, 48 h

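Dose response: 5 concentrations. Exposure: 48 h. Format: 96-well plates. Endpoint: linear interpolation; highest concentration if not reached. TGI is the concentration that stops growth completely.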

For `O=C(N/C(=C\c1ccc([N+](=O)[O-])cc1)c1nc2ccc(Cl)cc2[nH]1)c1ccccc1`, the TGI turned out to be 59.6 µM with CAKI-1 renal; 95.1 µM with CCRF-CEM leukemia; 61.4 µM in the assay on KM12 colon; 31.3 µM in the assay on M14 melanoma; 60.8 µM with OVCAR-4 ovarian; 48.1 µM with SK-MEL-2 melanoma. Further, the TGI was over 100 µM with SNB-19 CNS and 88.7 µM in the assay on TK-10 renal.

Consider `CC(C(=O)c1ccccc1)C1(O)C(=O)Nc2ccccc21` (stereo not given), for which the TGI in the assay on CAKI-1 renal, in the assay with CCRF-CEM leukemia, in the assay on HOP-62 NSCLC, in the assay on KM12 colon, in the assay with M14 melanoma and in the assay on OVCAR-4 ovarian was over 100 µM each time. Also, the TGI with SK-MEL-2 melanoma, with SNB-19 CNS and with TK-10 renal was over 100 µM each time.

For `O=S1c2ccccc2N=C(c2ccc(Cl)cc2)CC1c1cccs1` (stereo not given), the TGI in the assay with CAKI-1 renal is over 100 µM; in the assay with CCRF-CEM leukemia, 86.5 µM; with HOP-62 NSCLC, over 100 µM; in the assay with KM12 colon it was 33.8 µM; in the assay on M14 melanoma, 37.4 µM; with OVCAR-4 ovarian, 57.2 µM. In addition, the TGI was 45.2 µM with SNB-19 CNS and over 100 µM in the assay on TK-10 renal.

As for `S=P(c1ccccc1)(c1ccccc1)C1(C2(P(=S)(c3ccccc3)c3ccccc3)CC2)CC1`, the TGI with CCRF-CEM leukemia, in the assay on HOP-62 NSCLC, with KM12 colon, in the assay with M14 melanoma, in the assay with OVCAR-4 ovarian and with SK-MEL-2 melanoma was over 100 µM in each case. The TGI with SNB-19 CNS and with TK-10 renal was over 100 µM each time.

For `CC(Oc1ccc(OCC2CCCCC2)cc1)C(=O)O` (stereo not given), the TGI in the assay on CCRF-CEM leukemia, with KM12 colon, with M14 melanoma, with OVCAR-4 ovarian, with SK-MEL-2 melanoma and with TK-10 renal was over 100 µM in each case.

Consider `C[C@]12CC(C#N)C(=O)C(O)=C1CC[C@@H]1C2CC[C@@]2(C)C1CC[C@@H]2O` (stereo not given in full), for which the TGI with CCRF-CEM leukemia, in the assay with HOP-62 NSCLC, in the assay on KM12 colon, with M14 melanoma, in the assay with OVCAR-4 ovarian and in the assay with SK-MEL-2 melanoma was over 100 µM throughout. Besides, the TGI in the assay on SNB-19 CNS and in the assay with TK-10 renal was over 100 µM in each case.

Regarding `COc1cc2ccc(/C(C)=N/OC(C)=O)cc2cc1OC`, the TGI in the assay with CCRF-CEM leukemia, in the assay with KM12 colon, with M14 melanoma, in the assay with OVCAR-4 ovarian, with SK-MEL-2 melanoma and in the assay on SNB-19 CNS was over 100 µM in each case. Moreover, in the assay with TK-10 renal, the TGI is over 100 µM.

Take `CCN(CC)CCOC(=O)/C(=C/c1ccc(OC)cc1)c1cc(OC)c(OC)c(OC)c1`: the TGI with CAKI-1 renal is 38 µM; in the assay on CCRF-CEM leukemia, over 100 µM; in the assay with HOP-62 NSCLC, 31.7 µM; in the assay on KM12 colon, 16 µM; with M14 melanoma it was 19.9 µM; with OVCAR-4 ovarian it was over 100 µM. The figures for the TGI with SNB-19 CNS and with TK-10 renal were 80.6 µM and over 100 µM, respectively.

Regarding `c1ccc2c(c1)nnn2CNc1ccc(N2CCOCC2)cc1`, the TGI with CCRF-CEM leukemia, with HOP-62 NSCLC, in the assay on KM12 colon, in the assay on M14 melanoma, in the assay on OVCAR-4 ovarian and in the assay on SK-MEL-2 melanoma was over 100 µM each time. Moreover, the TGI with SNB-19 CNS and in the assay with TK-10 renal was over 100 µM throughout.

In the case of `CCCC1C(=O)C(CC)Cc2c(OC)ccc(OC)c21` (stereo not given), the TGI in the assay on CAKI-1 renal, in the assay on CCRF-CEM leukemia, in the assay with HOP-62 NSCLC, with KM12 colon, with M14 melanoma and with OVCAR-4 ovarian was over 100 µM each time. In addition, the TGI in the assay with SK-MEL-2 melanoma, in the assay on SNB-19 CNS and with TK-10 renal was over 100 µM each time.

Regarding `NC1=NC(c2ccccc2)CC(c2cc(Cl)cc(Br)c2O)=N1` (stereo not given), the TGI with CAKI-1 renal was determined as 26.8 µM; with CCRF-CEM leukemia, 35.6 µM; in the assay on HOP-62 NSCLC, 25.1 µM; with KM12 colon it was 26.1 µM; in the assay on M14 melanoma, 28.7 µM; in the assay on OVCAR-4 ovarian, 41.9 µM. For the same molecule, the TGI in the assay on SK-MEL-2 melanoma is 18.6 µM; in the assay on SNB-19 CNS, 33.3 µM; in the assay on TK-10 renal, 37.3 µM.

Turning to `COc1cc2ccnc3c2c(c1OC)CC1CC(O)C(OC)CC31` (stereo not given), the TGI in the assay on CCRF-CEM leukemia, with HOP-62 NSCLC, with KM12 colon, in the assay on M14 melanoma, with OVCAR-4 ovarian and in the assay on SK-MEL-2 melanoma was over 100 µM throughout. Moreover, the TGI in the assay on SNB-19 CNS and in the assay with TK-10 renal was over 100 µM throughout.

For the molecule `CC1Cc2c(N)nc(N3CCOCC3)nc2NC1=O` (stereo not given), the TGI in the assay with CCRF-CEM leukemia, with HOP-62 NSCLC, in the assay on KM12 colon, with M14 melanoma, in the assay on SK-MEL-2 melanoma and in the assay with SNB-19 CNS was over 100 µM throughout. This molecule had a TGI in the assay with TK-10 renal of over 100 µM.

For `C=CCCC(C)N(C(=O)OC(C)(C)C)S(=O)(=O)c1ccc(C)cc1` (stereo not given), the TGI with CAKI-1 renal, with HOP-62 NSCLC, with KM12 colon, in the assay on M14 melanoma, with OVCAR-4 ovarian and in the assay on SK-MEL-2 melanoma was over 100 µM in each case. The TGI in the assay on SNB-19 CNS and in the assay on TK-10 renal was over 100 µM each time.

For `C/C(=N\NS(=O)(=O)c1ccc(C)cc1)c1c(O)cc(C)oc1=O`, the TGI in the assay on CAKI-1 renal, in the assay on CCRF-CEM leukemia, in the assay on HOP-62 NSCLC, with KM12 colon, in the assay on M14 melanoma and in the assay on OVCAR-4 ovarian was over 100 µM in each case. In addition, the TGI with SK-MEL-2 melanoma, in the assay with SNB-19 CNS and with TK-10 renal was over 100 µM throughout.

Regarding `CCOC(=O)CNC1C(NC(C)=O)C(OC)OC2COC(c3ccccc3)OC21` (stereo not given), the TGI with CAKI-1 renal, in the assay with CCRF-CEM leukemia, with KM12 colon, with M14 melanoma, with OVCAR-4 ovarian and with SK-MEL-2 melanoma was over 100 µM throughout. The TGI in the assay on SNB-19 CNS and with TK-10 renal was over 100 µM each time.

On to `CC1=C(/C=C/C2=CC(=C\C(=O)O)/CC(C3=C(C)CCCC3(C)C)C2)C(C)(C)CCC1` (stereo not given), for which the TGI in the assay on CAKI-1 renal amounted to 29.5 µM; in the assay on HOP-62 NSCLC it was 27 µM; in the assay on KM12 colon, 24.1 µM; in the assay on M14 melanoma, 28.5 µM; with OVCAR-4 ovarian it was 28.1 µM; with SK-MEL-2 melanoma, 23.5 µM. The TGI with SNB-19 CNS stood at 27.7 µM; with TK-10 renal it was 27.3 µM.

As for `CC(=O)O[C@H]1CCC2[C@@H]3CCC4Nc5c(cnn5-c5ccccc5)C[C@]4(C)C3CC[C@@]21C` (stereo not given in full), the TGI in the assay on CAKI-1 renal stood at 20.7 µM; with CCRF-CEM leukemia, 39.5 µM; with HOP-62 NSCLC, 95.7 µM; in the assay with KM12 colon, 37.8 µM; in the assay with M14 melanoma it was 29.9 µM; with OVCAR-4 ovarian it was 71.3 µM. For the same molecule, the TGI in the assay on SK-MEL-2 melanoma is 35.8 µM; in the assay with SNB-19 CNS, 41.9 µM; in the assay with TK-10 renal, 50.3 µM.

On to `CCCCCCCC(=O)OCC1OC(n2cc(F)c(=O)[nH]c2=O)C(NC(=O)OCc2ccccc2)C(OC(=O)CCCCCCC)C1O` (stereo not given), for which the TGI with CAKI-1 renal was over 100 µM; with CCRF-CEM leukemia, 66.1 µM; with HOP-62 NSCLC, over 100 µM; in the assay with KM12 colon, over 100 µM; with M14 melanoma, 91.7 µM; in the assay with OVCAR-4 ovarian it was 83 µM. Further, the figures for the TGI in the assay with SK-MEL-2 melanoma and with TK-10 renal were 57.1 µM and over 100 µM, respectively.

On to `N#CC(C(=O)CCC(=O)Nc1ccc(Cl)cc1)c1ccccc1Cl` (stereo not given), for which the TGI with CAKI-1 renal, with CCRF-CEM leukemia, with KM12 colon, in the assay on M14 melanoma, in the assay with OVCAR-4 ovarian and with SK-MEL-2 melanoma was over 100 µM each time. Also, the TGI in the assay on SNB-19 CNS and in the assay with TK-10 renal was over 100 µM in each case.

As to `C[Si](C)(C)/C=C\CCCN1C(=O)CCC1=O`, the TGI with CCRF-CEM leukemia, in the assay on KM12 colon, with M14 melanoma, in the assay on SK-MEL-2 melanoma, in the assay on SNB-19 CNS and in the assay with TK-10 renal was over 100 µM each time.

Consider `O=C(COc1ccc(Cl)cc1)N1N=C(c2ccc([N+](=O)[O-])o2)CC1(O)c1ccccc1` (stereo not given), for which the TGI in the assay with CAKI-1 renal is over 100 µM; with HOP-62 NSCLC it was 35.8 µM; in the assay on KM12 colon, 27.7 µM; with M14 melanoma, 29.5 µM; in the assay with OVCAR-4 ovarian, 26.7 µM; with SK-MEL-2 melanoma it was 21 µM. Besides, the TGI in the assay with SNB-19 CNS amounted to 25.8 µM; in the assay with TK-10 renal, 20.6 µM.

`COC1OC(CBr)C(OC(c2ccccc2)(c2ccccc2)c2ccccc2)C(OC(c2ccccc2)(c2ccccc2)c2ccccc2)C1OC(c1ccccc1)(c1ccccc1)c1ccccc1` (stereo not given): the TGI in the assay with CAKI-1 renal is over 100 µM; in the assay on CCRF-CEM leukemia it was over 100 µM; with HOP-62 NSCLC it was over 100 µM; with KM12 colon, over 100 µM; in the assay with M14 melanoma, over 100 µM; in the assay with OVCAR-4 ovarian, 60.8 µM. In addition, the TGI in the assay on SNB-19 CNS and with TK-10 renal was over 100 µM throughout.

For the molecule `O=C(O)CN(c1ccccc1)S(=O)(=O)c1ccc(Cl)cc1`, the TGI in the assay with CAKI-1 renal, in the assay on CCRF-CEM leukemia, with M14 melanoma, in the assay with OVCAR-4 ovarian, in the assay on SK-MEL-2 melanoma and in the assay with SNB-19 CNS was over 100 µM throughout. Moreover, the TGI with TK-10 renal was over 100 µM.
